US20230183237A1, “COMPETITIVE AND NONCOMPETITIVE INHIBITORS OF THE MUSCARINIC ACETYLCHOLINE RECEPTOR M5” (Vanderbilt University, priority 2020, published 2023)
Where two headings read alike, the source gives them in different places.

Target: T1, hM5 (Homo sapiens, UniProt P08912)
T1 construct: expressed in transfected cells
T1 sequence (P08912 1-532): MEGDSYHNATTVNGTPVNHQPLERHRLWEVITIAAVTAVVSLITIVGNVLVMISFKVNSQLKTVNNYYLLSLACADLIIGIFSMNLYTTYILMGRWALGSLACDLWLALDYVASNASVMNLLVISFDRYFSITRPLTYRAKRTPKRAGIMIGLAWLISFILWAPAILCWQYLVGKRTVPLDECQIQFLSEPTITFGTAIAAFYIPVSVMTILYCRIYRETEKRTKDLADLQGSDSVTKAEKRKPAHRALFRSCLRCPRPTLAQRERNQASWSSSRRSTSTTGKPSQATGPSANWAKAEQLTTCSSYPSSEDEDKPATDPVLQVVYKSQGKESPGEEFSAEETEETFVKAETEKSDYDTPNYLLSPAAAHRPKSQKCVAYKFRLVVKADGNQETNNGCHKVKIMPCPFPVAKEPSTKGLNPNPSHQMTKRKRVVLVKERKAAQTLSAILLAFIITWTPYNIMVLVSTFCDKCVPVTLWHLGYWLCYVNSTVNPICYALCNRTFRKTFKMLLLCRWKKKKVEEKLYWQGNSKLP
Test: Calcium mobilization concentration-response (IC50 vs EC80 acetylcholine), CHO hM5
Format: cell-based
Conditions: CELL LINE hM5, read-out: IC50
In short: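 IC50 values derive from percent maximal acetylcholine response after an EC80 ACh addition, measured as kinetic calcium fluorescence (static ratio, max−min). Test compounds were added 140 s before agonist. Cells: stable hM5-CHO in HEPES-buffered HBSS with 2.5 mM probenecid, pH 7.4; ≥3 independent triplicate determinations.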

[1] = calcium mobilization, EC80 acetylcholine addition

| IC50 [1] [nM] | IC50 (vs EC80 acetylcholine) [nM] | Compound |
| --- | --- | --- |
| > 10000 | – | Cc1cc2ncnn2nc1C1CCN(S(=O)(=O)c2cnn(C(F)F)c2C)CC1 [Compound 176, 6-(1-((1-(difluoromethyl)-5-methyl-1H-pyrazol-4-yl)sulfonyl)piperidin-4-yl)-7-methyl-[1,2,4]triazolo[1,5-b]pyridazine] |
| – | 445 | Cc1cc2ncccc2cc1C1CCN(S(=O)(=O)c2cnc3ccccn23)CC1 [Compound 452, 6-(1-(imidazo[1,2-a]pyridin-3-ylsulfonyl)piperidin-4-yl)-7-methylquinoline] |
| – | 92 | [2H]C1([2H])CC(c2cn3ncnc3cc2F)CC([2H])([2H])N1S(=O)(=O)c1cnn(C)c1C(F)F [Compound 476, 6-(1-((5-(difluoromethyl)-1-methyl-1H-pyrazol-4-yl)sulfonyl)piperidin-4-yl-2,2,6,6-d4)-7-fluoro-[1,2,4]triazolo[1,5-a]pyridine] |
| 822 | – | Cc1ccncc1C1CCN(S(=O)(=O)c2cnn3c2CCC3)CC1 [Compound 388, 3-((4-(4-methylpyridin-3-yl)piperidin-1-yl)sulfonyl)-5,6-dihydro-4H-pyrrolo[1,2-b]pyrazole] |
| > 10000 | – | Cn1cnc2cc(C3CCN(S(=O)(=O)c4ccc5c(c4)CCO5)CC3)ccc21 [Compound 7, 5-(1-((2,3-dihydrobenzofuran-5-yl)sulfonyl)piperidin-4-yl)-1-methyl-1H-benzo[d]imidazole] |
| > 10000 | – | Cc1cc(C2CCN(S(=O)(=O)c3cnn(C)c3C)CC2)cn2ncnc12 [Compound 199, 6-(1-((1,5-dimethyl-1H-pyrazol-4-yl)sulfonyl)piperidin-4-yl)-8-methyl-[1,2,4]triazolo[1,5-a]pyridine] |
| – | 43 | Cc1cc2nccn2nc1N1CCN(S(=O)(=O)c2cnn(C)c2C)CC1 [Compound 434, 6-[4-(1,5-Dimethylpyrazol-4-yl)sulfonylpiperazin-1-yl]-7-methyl-imidazo[1,2-b]pyridazine] |
| 99 | – | O=S(=O)(c1cnc2n1CCCC2)N1CCC(c2cn3ncnc3cc2F)CC1 [Compound 326, 7-fluoro-6-(1-((5,6,7,8-tetrahydroimidazo[1,2-a]pyridin-3-yl)sulfonyl)piperidin-4-yl)-[1,2,4]triazolo[1,5-a]pyridine] |
| > 10000 | – | Cc1nc2cc(C)c(C3CCN(S(=O)(=O)c4cc5c(cc4F)OCC5)CC3)cn2n1 [Compound 77, 6-(1-((6-fluoro-2,3-dihydrobenzofuran-5-yl)sulfonyl)piperidin-4-yl)-2,7-dimethyl-[1,2,4]triazolo[1,5-a]pyridine] |
| 51 | – | O=S(=O)(c1cnn2c1CCCC2)N1CCC(c2cn3ncnc3cc2C(F)(F)F)CC1 [Compound 271, 6-(1-((4,5,6,7-tetrahydropyrazolo[1,5-a]pyridin-3-yl)sulfonyl)piperidin-4-yl)-7-(trifluoromethyl)-[1,2,4]triazolo[1,5-a]pyridine] |
| > 10000 | – | Cc1cc2ncnn2cc1C1CCN(S(=O)(=O)c2c(C)nn(C)c2C(F)(F)F)C(C)C1 (stereo not drawn) [Compound 362, 6-(1-((1,3-dimethyl-5-(trifluoromethyl)-1H-pyrazol-4-yl)sulfonyl)-2-methylpiperidin-4-yl)-7-methyl-[1,2,4]triazolo[1,5-a]pyridine] |
| – | 636 | CCc1cc2ncnn2cc1C1CCN(S(=O)(=O)c2cnn(C)c2CC#N)CC1 [Compound 408, 2-(4-((4-(7-ethyl-[1,2,4]triazolo[1,5-a]pyridin-6-yl)piperidin-1-yl)sulfonyl)-1-methyl-1H-pyrazol-5-yl)acetonitrile] |
| – | 250 | Cc1nc2n(c1C1CCN(S(=O)(=O)c3cnn(C)c3Cl)CC1)CCCC2 [Compound 463, 3-(1-((5-Chloro-1-methyl-1H-pyrazol-4-yl)sulfonyl)piperidin-4-yl)-2-methyl-5,6,7,8-tetrahydroimidazo[1,2-a]pyridine] |
| 212 | – | O=S(=O)(c1cnn2c1CCCC2)N1CC=C(c2cc3ncnn3cc2Cl)CC1 [Compound 241, 6-chloro-7-(1-((4,5,6,7-tetrahydropyrazolo[1,5-a]pyridin-3-yl)sulfonyl)-1,2,3,6-tetrahydropyridin-4-yl)-[1,2,4]triazolo[1,5-a]pyridine] |
| > 10000 | – | Cc1cc2nccn2nc1C1CCN(S(=O)(=O)c2ccc(Cl)s2)CC1 [Compound 37, 6-(1-((5-chlorothiophen-2-yl)sulfonyl)piperidin-4-yl)-7-methylimidazo[1,2-b]pyridazine] |
| > 10000 | – | Cc1cc2nccn2cc1C1CCN(S(=O)(=O)c2cn(C)nc2C)CC1 [Compound 71, 6-(1-((1,3-dimethyl-1H-pyrazol-4-yl)sulfonyl)piperidin-4-yl)-7-methylimidazo[1,2-a]pyridine] |
| – | 216 | Cc1cc2ccnn2cc1C1CCN(S(=O)(=O)c2cnn(C)c2C)CC1 [Compound 453, 6-(1-((1,5-dimethyl-1H-pyrazol-4-yl)sulfonyl)piperidin-4-yl)-5-methylpyrazolo[1,5-a]pyridine] |

| IC50 [1] [nM] | IC50 (vs EC80 acetylcholine) [nM] | Compound |
| --- | --- | --- |
| 5600 | – | O=S(=O)(c1ccc2c(c1)CCO2)N1CCC(c2nnc(NCc3ccccc3)cc2C(F)(F)F)CC1 [Compound 44] |
| > 10000 | – | Cn1cnc2cc(C3CCN(S(=O)(=O)c4ccc5ncsc5c4)CC3)ccc21 [Compound 8, 6-((4-(1-methyl-1-benzo[d]imidazol-5-yl)piperidin-1-yl)sulfonyl)benzo[d]thiazole] |
| 64 | – | Cc1cc2nccnc2cc1C1=CCN(S(=O)(=O)c2cnn(C)c2C)CC1 [Compound 354, 6-(1((1,5-dimethyl-1H-pyrazol-4-yl)sulfonyl)-1,2,3,6-tetrahydropyridin-4-yl)-7-methylquinoxaline] |
| – | 20 | Cc1cc2ncnn2cc1C1CCN(S(=O)(=O)c2cnn3ccccc23)CC1 [Compound 508, 7-methyl-6-(1-(pyrazolo[1,5-a]pyridin-3-ylsulfonyl)piperidin-4-yl)-[1,2,4]triazolo[1,5-a]pyridine] |
| – | 343 | Cc1cc(S(=O)(=O)N2CCC(c3nn4ncnc4cc3C)CC2)sn1 [Compound 487, 3-methyl-5-((4-(7-methyl-[1,2,4]triazolo[1,5-b]pyridazin-6-yl)piperidin-1-yl)sulfonyl)isothiazole] |
| > 10000 | – | O=S(=O)(c1ccc2ncsc2c1)N1CCC(c2nc3cccnc3s2)CC1 [Compound 11, 2-(1-(benzo[d]thiazol-6-ylsulfonyl)piperidin-4-yl)thiazolo[5,4-b]pyridine] |
| – | 4140 | Cc1ncc(S(=O)(=O)N2CCC(c3cc(F)c4ncnn4c3)CC2)n1C [Compound 467, 6-(1-((1,2-dimethyl-1H-imidazol-5-yl)sulfonyl)piperidin-4-yl)-8-fluoro-[1,2,4]triazolo[1,5-a]pyridine] |
| – | 38 | Cc1cc(S(=O)(=O)N2CCC(c3cnc(N(C)C)cc3C)CC2)sn1 [Compound 565, N,N,4-trimethyl-5-(1-((3-methylisothiazol-5-yl)sulfonyl)piperidin-4-yl)pyridin-2-amine] |
| – | 113 | Cc1cc2nccn2nc1N1CCN(S(=O)(=O)c2cnc(C)n2C)CC1 [Compound 436, 6-(4-((1,2-dimethyl-1H-imidazol-5-yl)sulfonyl)piperazin-1-yl)-7-methylimidazo[1,2-b]pyridazine] |
| – | 736 | Cc1cc2ncnn2cc1C1CCN(S(=O)(=O)c2cnn(C)c2CNC(=O)c2ccccn2)CC1 [Compound 554, N-((1-Methyl-4-((4-(7-methyl-[1,2,4]triazolol[1,5-a]pyridin-6-yl)piperidin-1-yl)sulfonyl)-1H-pyrazol-5-yl)methyl)picolinamide] |
| – | 61 | Cn1ncc(S(=O)(=O)N2CCC(c3cn4ncnc4cc3C(F)F)CC2)c1C#N [Compound 482, 4-((4-(7-(difluoromethyl)-[1,2,4]triazolo[1,5-a]pyridin-6-yl)piperidin-1-yl)sulfonyl)-1-methyl-1H-pyrazole-5-carbonitrile] |
| – | 496 | Cc1ncc(S(=O)(=O)N2CCC(c3cn4ncnc4cc3C(F)(F)F)CC2)o1 [Compound 498, 2-methyl-5-((4-(7-(trifluoromethyl)-[1,2,4]triazolo[1,5-a]pyridin-6-yl)piperidin-1-yl)sulfonyl)oxazole] |
| 4900 | – | Cc1cc(S(=O)(=O)N2CCC(c3nn4ccnc4cc3C)CC2)c(C)s1 [Compound 311, 6-(1-((2,5-dimethylthiophen-3-yl)sulfonyl)piperidin-4-yl)-7-methylimidazo[1,2-b]pyridazine] |
| – | 125 | [2H]C1([2H])CC(c2cn3ncnc3cc2F)CC([2H])([2H])N1S(=O)(=O)c1cnc2sccn12 [Compound 538, 5-((4-(7-fluoro-[1,2,4]triazolo[1,5-a]pyridin-6-yl)piperidin-1-yl-2,2,6,6-d4)sulfonyl)imidazo[2,1-b]thiazole] |
| – | 6920 | Cc1nc2n(c1C1CCN(S(=O)(=O)c3cnn(C)c3C(F)F)CC1)CCCC2 [Compound 465, 3-(1-((5-(difluoromethyl)-1-methyl-1H-pyrazol-4-yl)sulfonyl)piperidin-4-yl)-2-methyl-5,6,7,8-tetrahydroimidazo[1,2-a]pyridine] |
| 343 | – | Cc1cc2ncnn2cc1C1CCN(S(=O)(=O)c2ccc3c(c2)N(C)CCO3)CC1 [Compound 121, 4-methyl-6-((4-(7-methyl-[1,2,4]triazolo[1,5-a]pyridin-6-yl)piperidin-1-yl)sulfonyl)-3,4-dihydro-2H-benzo[b][1,4]oxazine] |
